Reference: patent US20250320215A1, “SALTS OF N-[4-(4-[[2-(DIMETHYLAMINO)ETHYL]AMINO]-3-METHYL-1H-PYRAZOLO[3,4-D]PYRIMIDIN-6-YL)-2-FLUOROPHENYL]-2,5-DIFLUOROBENZENESULFONAMIDE AND CRYSTALLINE FORMS THEREOF” (THRYV THERAPEUTICS INC, priority 2022, published 2025)
Where two headings read alike, the source gives them in different places.

How the values were obtained:
Type in all cases: physicochemical
[1] = Water activity study (competition of forms, XRPD); details: for XPRD results, Form: room temperature
Method: Water activity study was performed using Compound 3 Form B (anhydrate) as the input material in EtOH/Water with different water content at RT. About 5 mg of Compound 3, Form B was used to prepare saturated solutions and the solutions were filtered by syringe at RT. 5 mg of Compound 3, Form D were added in the 1 mL of filtrate, and the suspension was slurried at RT for 3 and 7 days. The solids collected after filtration were analyzed by XRPD.
Protocol: excess amount of Compound 4 Form B was used to prepare saturated solutions. 6-8 mg each of Compound 4 Form B and Form D were added in the solutions. The suspension was slurried at room temperature for the corresponding times. Residual solids were collected by filtration with syringe filter, and characterized by XRPD.

[2] = Estimated solubility by solvent addition method via visual assessment; details: thermodynamic from solid, read-out: Solubility, Concentration
Method: Solubility of Compound 3 Form B was estimated in 30 solvents at room temperature and in 9 organic solvents at 70° C. using solvent addition method via visual assessment.
Protocol: about 3 mg of Compound 3 Form B was weighed into a sample vial and the solvent was added gradually with vortex until the drug solution was clear by observation or a total of 2 mL solvent was added. Then, the estimated solubility (mg/mL) was calculated.
Solubility of Compound 4, Form B was estimated in 18 solvents at room temperature using solvent addition method via visual assessment. About 3 mg of Compound 4, Form B was weighed into a sample vial and the solvent was added gradually with vortex until the solution was clear by observation or a total of 2 mL solvent was added. Then, the estimated solubility (mg/mL) was calculated.

[3] = Slurry study evaluated by XRPD
Method: About 20 mg of Compound 3, Form B was weighed into a sample vial and then 1 mL of solvent was added to make a suspension. The suspension was stirred at room temperature or 50° C. for 3 days and 11 days. Then, the wet solid was collected by filtration and analyzed by XRPD.
20-30 mg of Compound 4 Form B was added in 1 mL of selected solvents at room temperature or 50° C. The suspension was slurried at room temperature or 50° C. for 3 days and 11 days. The wet solids collected from filtration were examined by XRPD. There were four crystal forms obtained by slurrying, including di-mesylate Forms B, C and D as well as mono-mesylate Form G.

[4] = Competitive slurry experiment evaluated by XRPD
Text: Competitive slurry experiment for Compound 4 Form B and Form D Competitive slurry experiments of Compound 4 Form B and Form D were set up to verify the relative stability relationship. It was supposed that Form D was the stable form at high water activity, while Form B was stable at low water activity. All the solvents used was analytical grade and should contained trace amounts of water. […] The water activity at elevated temperature is lower than at low temperature. Therefore, Form B was obtained in ACN at 50° C., while Form D was the stable form at room temperature.

[5] = slurry at 50° C., printed at MeOH

Cc1n[nH]c2nc(-c3ccc(NS(=O)(=O)c4cc(F)ccc4F)c(F)c3)nc(NCCN(C)C)c12.Cl [Compound 3 Form B + D]
XPRD results 3 D/Wet, 7 D/Wet, 7 D/Dried ([1]; EtOH/Water 24.7/75.3 (V/%), aW 0.92, RT): Form D + extra peak | XPRD results 3 D/Wet, 7 D/Wet, 7 D/Dried ([1]; EtOH/Water 58.1/41.9 (V/%), aW 0.82, RT): Form D + extra peak | XPRD results 3 D/Wet, 7 D/Wet, 7 D/Dried ([1]; EtOH/Water 82.9/17.1 (V/%), aW 0.64, RT): Form D | XPRD results 3 D/Wet, 7 D/Wet, 7 D/Dried ([1]; EtOH/Water 92.8/7.2 (V/%), aW 0.41, RT): Form D | XPRD results 3 D/Wet, 7 D/Wet, 7 D/Dried ([1]; EtOH/Water 97/3 (V/%), aW 0.21, RT): Form D | XPRD results 3 D/Wet, 7 D/Wet, 7 D/Dried ([1]; EtOH/Water 98.4/1.6 (V/%), aW 0.12, RT): Form D

Cc1n[nH]c2nc(-c3ccc(NS(=O)(=O)c4cc(F)ccc4F)c(F)c3)nc(NCCN(C)C)c12.Cl [Compound 3 Form B]
solubility ([2]; aqueous with cosolvent or surfactant or cyclodextrin, Acetone/Water (1/1), RT): < 1500 µg/mL | solubility ([2]; organic solvent or mixture, 1,4-Dioxane, RT): < 1500 µg/mL | solubility ([2]; organic solvent or mixture, 2-Me-THF, RT): < 1500 µg/mL | solubility ([2]; organic solvent or mixture, ACN, RT): < 1500 µg/mL | solubility ([2]; organic solvent or mixture, ACN/Water (9/1), RT): 1500 to 1700 µg/mL | solubility ([2]; organic solvent or mixture, Acetic acid, 70° C.): < 1500 µg/mL | solubility ([2]; organic solvent or mixture, Acetic acid, RT): < 1500 µg/mL | solubility ([2]; organic solvent or mixture, Acetone, 70° C.): < 1500 µg/mL | solubility ([2]; organic solvent or mixture, Acetone, RT): < 1500 µg/mL | solubility ([2]; organic solvent or mixture, Acetone/MeOH (1/1), RT): 1500 to 1600 µg/mL | solubility ([2]; organic solvent or mixture, Benzyl alcohol, 70° C.): < 1500 µg/mL | solubility ([2]; organic solvent or mixture, Benzyl alcohol, RT): < 1500 µg/mL | solubility ([2]; organic solvent or mixture, DCM, RT): < 1500 µg/mL | solubility ([2]; organic solvent or mixture, DCM/MeOH (3/1), RT): < 1500 µg/mL | solubility ([2]; organic solvent or mixture, DMA, 70° C.): 20000 to 40000 µg/mL | solubility ([2]; organic solvent or mixture, DMA, RT): 3000 to 3300 µg/mL | solubility ([2]; organic solvent or mixture, DMF, 70° C.): 16700 to 20000 µg/mL | solubility ([2]; organic solvent or mixture, DMF, RT): 2000 to 3000 µg/mL | solubility ([2]; organic solvent or mixture, DMSO, 70° C.): > 40000 µg/mL | solubility ([2]; organic solvent or mixture, DMSO, RT): 5400 to 5500 µg/mL | solubility ([2]; organic solvent or mixture, EA, RT): < 1500 µg/mL | solubility ([2]; organic solvent or mixture, EtOH, 70° C.): < 1500 µg/mL | solubility ([2]; organic solvent or mixture, EtOH, RT): < 1500 µg/mL | solubility ([2]; organic solvent or mixture, IPA, RT): < 1500 µg/mL | solubility ([2]; organic solvent or mixture, IPAC, RT): < 1500 µg/mL | solubility ([2]; organic solvent or mixture, IPE, RT): < 1500 µg/mL | solubility ([2]; organic solvent or mixture, MEK, RT): < 1500 µg/mL | solubility ([2]; organic solvent or mixture, MIBK, RT): < 1500 µg/mL | solubility ([2]; organic solvent or mixture, MTBE, RT): < 1500 µg/mL | solubility ([2]; organic solvent or mixture, Me-cyclohexane, RT): < 1500 µg/mL | solubility ([2]; organic solvent or mixture, MeOH, RT): < 1500 µg/mL | solubility ([2]; organic solvent or mixture, MeOH/Water (9/1), RT): 2500 to 3000 µg/mL | solubility ([2]; organic solvent or mixture, NMP, 70° C.): > 40000 µg/mL | solubility ([2]; organic solvent or mixture, NMP, RT): 3000 to 3800 µg/mL | solubility ([2]; organic solvent or mixture, THF, 70° C.): < 1500 µg/mL | solubility ([2]; organic solvent or mixture, THF, RT): < 1500 µg/mL | solubility ([2]; organic solvent or mixture, THF/Water (9/1), RT): 1600 to 1900 µg/mL | solubility ([2]; organic solvent or mixture, n-Heptane, RT): < 1500 µg/mL | solubility ([2]; Water, RT): < 1500 µg/mL | XRPD Day 3/Wet [3, 5]: Form D | XRPD Day 11/Wet [3, 5]: Form D | XRPD Day 3/Wet ([3]; slurry at RT, 1,4-Dioxane 1 mL, cell apparently merged down for IPA, IPAC, MTBE, Water, n-Heptane, Acetone, EA, ACN, DCM, MIBK, MEK): Form D | XRPD Day 3/Wet ([3]; slurry at RT, EtOH 1 mL): Form D | XRPD Day 3/Wet ([3]; slurry at RT, MeOH 1 mL): Amorphous | XRPD Day 3/Wet ([3]; slurry at RT, THF 1 mL): Amorphous | XRPD Day 11/Wet ([3]; slurry at RT, printed at MeOH): Form D

Cc1n[nH]c2nc(-c3ccc(NS(=O)(=O)c4cc(F)ccc4F)c(F)c3)nc(NCCN(C)C)c12 [Compound 4 Forms B + D]
XPRD results, Form ([1]; ACN/water, aW 0.37, 8 d): Form D | XPRD results, Form ([1]; ACN/water, aW 0.37, 14 d): Form D | XPRD results, Form ([1]; ACN/water, aW 0.58, 8 d): Form D | XPRD results, Form ([1]; ACN/water, aW 0.58, 14 d): Form D | XPRD results, Form ([1]; ACN/water, aW 0.78, 8 d): Form D | XPRD results, Form ([1]; ACN/water, aW 0.78, 14 d): Form D | XPRD results, Form ([1]; ACN/water, aW 0.90, 8 d): Form D | XPRD results, Form ([1]; ACN/water, aW 0.90, 14 d): Form D | XPRD results, Form ([1]; MeOH/water, aW 0.08, 3 d): Forms B + D | XPRD results, Form ([1]; MeOH/water, aW 0.08, 7 d): Form B | XPRD results, Form ([1]; MeOH/water, aW 0.16, 3 d): Form D | XPRD results, Form ([1]; MeOH/water, aW 0.16, 7 d): Form D | Results 8 d (XRPD) ([4]; ACN, 50° C.): Form B | Results 14 d (XRPD) ([4]; ACN, 50° C.): Form B | Results 8 d (XRPD) ([4]; ACN, RT): Form B + Form D | Results 14 d (XRPD) ([4]; ACN, RT): Form D | Results 8 d (XRPD) ([4]; IPAC, 50° C.): Form D | Results 14 d (XRPD) ([4]; IPAC, 50° C.): Form D | Results 8 d (XRPD) ([4]; IPAC, RT): Form D | Results 14 d (XRPD) ([4]; IPAC, RT): Form D | Results 8 d (XRPD) ([4]; MeOH, 50° C.): Form B | Results 14 d (XRPD) ([4]; MeOH, 50° C.): Form B | Results 8 d (XRPD) ([4]; MeOH, RT): Form B | Results 14 d (XRPD) ([4]; MeOH, RT): Form B
